The values that follow come from PMC5615129 (Toxicology Reports, 2017).

The test addresses T1, aromatase (CYP19) (Homo sapiens, UniProt P11511).
T1 sequence (P11511 1-503): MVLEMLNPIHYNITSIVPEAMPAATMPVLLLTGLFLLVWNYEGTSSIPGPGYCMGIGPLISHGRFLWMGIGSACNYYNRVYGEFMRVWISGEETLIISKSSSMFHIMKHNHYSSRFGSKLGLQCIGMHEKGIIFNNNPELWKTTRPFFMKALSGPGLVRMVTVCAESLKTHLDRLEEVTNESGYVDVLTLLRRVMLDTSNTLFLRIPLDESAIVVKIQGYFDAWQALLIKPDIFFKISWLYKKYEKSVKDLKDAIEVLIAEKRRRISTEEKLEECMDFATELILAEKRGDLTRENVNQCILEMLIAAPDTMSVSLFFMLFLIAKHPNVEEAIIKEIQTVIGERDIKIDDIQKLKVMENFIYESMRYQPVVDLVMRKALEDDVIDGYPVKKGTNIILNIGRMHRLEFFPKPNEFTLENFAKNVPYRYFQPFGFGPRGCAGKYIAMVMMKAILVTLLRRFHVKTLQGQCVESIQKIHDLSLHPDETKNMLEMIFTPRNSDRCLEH
It counts as cell-based.

The compound `C/C=C(\C)c1cc(O)c(C)c2c1Oc1cc(O)cc(C)c1C(=O)O2` [UNG, unguinol] gave an IC50 of 9.73 µM.

In general, IC50 refers to the midpoint of a concentration-inhibition curve.
